Assay results as given in patent US11000033B2, “Ketone or oxime compound, and herbicide” (NISSAN CHEMICAL CORPORATION, priority 2014, dated 2021).

Legend:
Format in all cases: in vivo
Apera spica-venti [1] = test: Test Example 5: herbicidal effect by foliage application, plastic box (symbol L); conditions: 320 g/ha, 3 weeks after application
Outline: (§1)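 Post-emergence spray; diluvial soil (sterilized), ~1.5 cm seed cover; greenhouse 25–30° C; 14-day-old plants; water-diluted emulsion at predetermined dose; visual score at 3 wk post-treatment.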

Digitaria ciliaris = test: Test Example 5: herbicidal effect by foliage application, plastic box (symbol F); conditions: 320 g/ha, 3 weeks after application
Outline: as §1

Abutilon theophrasti = test: Test Example 5: herbicidal effect by foliage application, plastic box (symbol M); conditions: 320 g/ha, 3 weeks after application
Outline: as §1

Galium spurium [2] = test: Test Example 4: herbicidal effect by soil treatment (symbol Q); conditions: application herbicide amount 320 g/ha
Outline: (§2)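 Seeds were sown in sterilized diluvial soil, covered with about 1.5 cm of soil, and the soil surface was sprayed with a water-diluted emulsion of the compound at a predetermined rate. Plants grew in a greenhouse at 25° C. to 30° C.; effects were scored visually 3 weeks after application.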

Chenopodium album = test: Test Example 5: herbicidal effect by foliage application, plastic box (symbol O); conditions: 320 g/ha, 3 weeks after application
Outline: as §1

Amaranthus retroflexus = test: Test Example 4: herbicidal effect by soil treatment (symbol N); conditions: application herbicide amount 320 g/ha
Outline: as §2

Veronica persica = test: Test Example 5: herbicidal effect by foliage application, plastic box (symbol R); conditions: 320 g/ha, 3 weeks after application
Outline: as §1

Avena fatua [3] = test: Test Example 4: herbicidal effect by soil treatment (symbol I); conditions: application herbicide amount 320 g/ha
Outline: as §2

Stellaria media = test: Test Example 5: herbicidal effect by foliage application, plastic box (symbol P); conditions: 320 g/ha, 3 weeks after application
Outline: as §1

soybean = test: Test Example 4: effect on crop by soil treatment (symbol d); conditions: application herbicide amount 320 g/ha
Outline: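 Sterilized diluvial soil, spot sowing, ~1.5 cm soil cover; greenhouse 25–30° C.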

Galium spurium [4] = test: Test Example 5: herbicidal effect by foliage application, plastic box (symbol Q); conditions: 320 g/ha, 3 weeks after application
Outline: as §1

Apera spica-venti [5] = test: Test Example 4: herbicidal effect by soil treatment (symbol L); conditions: application herbicide amount 320 g/ha
Outline: as §2

Leptochloa chinensis = test: Test Example 3: herbicidal effect by foliage application, Wagner pot (symbol D); conditions: application herbicide amount 320 g/ha
Outline: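 In a shallow-flooded alluvial soil system held at 25–30 °C, plants including rice grew for 14 days and were then sprayed over the foliage with emulsion diluted to a fixed herbicide amount. Visual rating followed at 3 weeks.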

Setaria viridis = test: Test Example 4: herbicidal effect by soil treatment (symbol G); conditions: application herbicide amount 320 g/ha
Outline: as §2

rapeseed = test: Test Example 5: effect on crop by foliage application, plastic box (symbol g); conditions: 320 g/ha, 3 weeks after application
Outline: (§3)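 Foliage-application test plants come from spot sowing in sterilized diluvial soil under a soil layer of about 1.5 cm, grown at 25° C. to 30° C. in a greenhouse.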

Avena fatua [6] = test: Test Example 5: herbicidal effect by foliage application, plastic box (symbol I); conditions: 320 g/ha, 3 weeks after application
Outline: as §1

[7] = tested on: Echinochloa crus-galli var. crus-galli; test: Test Example 5: herbicidal effect by foliage application, plastic box (symbol H); conditions: 320 g/ha, 3 weeks after application
Outline: as §1

Scirpus juncoides = test: Test Example 1: herbicidal activity, application before weed generation in submerged conditions (symbol B); conditions: application herbicide amount 320 g/ha
Outline: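 Pre-emergence, paddy conditions: emulsifiable formulation diluted in water, dosed onto floodwater (4 cm depth) on sowing day. Alluvial soil; weeds sown mixed; rice transplanted at 2.5-leaf stage. Greenhouse 25–30 °C, 3 wk. Score 0–5 (5 = ≥90% kill, 0 = ≤5%).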

beet = test: Test Example 5: effect on crop by foliage application, plastic box (symbol f); conditions: 320 g/ha, 3 weeks after application
Outline: as §3

SMILES	L: Apera spica-venti, herbicidal effect (criteria of Test Example 1) (Apera spica-venti [1])	F: Digitaria ciliaris, herbicidal effect (criteria of Test Example 1) (Digitaria ciliaris)	M: Abutilon theophrasti, herbicidal effect (criteria of Test Example 1) (Abutilon theophrasti)	Herbicidal effect grade, Q: Galium spurium (Galium spurium [2])	O: Chenopodium album, herbicidal effect (criteria of Test Example 1) (Chenopodium album)	Herbicidal effect grade, N: Amaranthus retroflexus (Amaranthus retroflexus)	R: Veronica persica, herbicidal effect (criteria of Test Example 1) (Veronica persica)	Herbicidal effect grade, I: Avena fatua (Avena fatua [3])	P: Stellaria media, herbicidal effect (criteria of Test Example 1) (Stellaria media)	Effect on crop grade, d: soybean (soybean)	Q: Galium spurium, herbicidal effect (criteria of Test Example 1) (Galium spurium [4])	Herbicidal effect grade, L: Apera spica-venti (Apera spica-venti [5])	herbicidal effect on D (Leptochloa chinensis), grade 0-5 (Leptochloa chinensis)	Herbicidal effect grade, G: Setaria viridis (Setaria viridis)	g: rapeseed, effect on crop (criteria of Test Example 1) (rapeseed)	I: Avena fatua, herbicidal effect (criteria of Test Example 1) (Avena fatua [6])	H: Echinochloa crus-galli var. crus-galli, herbicidal effect (criteria of Test Example 1) [7]	Herbicidal effect grade, B: Scirpus juncoides (Scirpus juncoides)	f: beet, effect on crop (criteria of Test Example 1) (beet)	L: Apera spica-venti, herbicidal effect grade (Apera spica-venti [1])	other results
CON=C(C)CC1CC(OC(=O)COc2ccccc2)=C(c2c(C)cc(-c3ccccc3)cc2OC)C1=O (stereo not shown) [6-100]	5 (Herbicidal ratio of 90% or more (almost completely withered))	5 (Herbicidal ratio of 90% or more (almost completely withered))	3 (Herbicidal ratio of 40% or higher and lower than 70%)	1 (Herbicidal ratio of 5% or higher and lower than 20%)	4 (Herbicidal ratio of 70% or higher and lower than 90%)	5 (Herbicidal ratio of 90% or more (almost completely withered))	3 (Herbicidal ratio of 40% or higher and lower than 70%)	5 (Herbicidal ratio of 90% or more (almost completely withered))	3 (Herbicidal ratio of 40% or higher and lower than 70%)	0 (Herbicidal ratio of 5% or lower (almost no effect))	4 (Herbicidal ratio of 70% or higher and lower than 90%)	5 (Herbicidal ratio of 90% or more (almost completely withered))	5 (Herbicidal ratio of 90% or more (almost completely withered))	5 (Herbicidal ratio of 90% or more (almost completely withered))	5 (Herbicidal ratio of 90% or more (almost completely withered))	5 (Herbicidal ratio of 90% or more (almost completely withered))	5 (Herbicidal ratio of 90% or more (almost completely withered))	5 (Herbicidal ratio of 90% or more (almost completely withered))	0 (Herbicidal ratio of 5% or lower (almost no effect))	–	–
CON=C(C)CC1CC(O)=C(c2c(C)cc(-c3cc(F)c(F)c(F)c3)cc2C)C1=O (stereo not shown) [6-104]	5 (Herbicidal ratio of 90% or more (almost completely withered))	5 (Herbicidal ratio of 90% or more (almost completely withered))	5 (Herbicidal ratio of 90% or more (almost completely withered))	4 (Herbicidal ratio of 70% or higher and lower than 90%)	4 (Herbicidal ratio of 70% or higher and lower than 90%)	5 (Herbicidal ratio of 90% or more (almost completely withered))	4 (Herbicidal ratio of 70% or higher and lower than 90%)	4 (Herbicidal ratio of 70% or higher and lower than 90%)	4 (Herbicidal ratio of 70% or higher and lower than 90%)	0 (Herbicidal ratio of 5% or lower (almost no effect))	4 (Herbicidal ratio of 70% or higher and lower than 90%)	5 (Herbicidal ratio of 90% or more (almost completely withered))	5 (Herbicidal ratio of 90% or more (almost completely withered))	5 (Herbicidal ratio of 90% or more (almost completely withered))	4 (Herbicidal ratio of 70% or higher and lower than 90%)	5 (Herbicidal ratio of 90% or more (almost completely withered))	5 (Herbicidal ratio of 90% or more (almost completely withered))	5 (Herbicidal ratio of 90% or more (almost completely withered))	4 (Herbicidal ratio of 70% or higher and lower than 90%)	–	–
CON=C(C)CC1CC(O)=C(c2c(C)cc(-c3ccccn3)cc2C)C1=O (mixture of isomers) [6-051]	–	–	–	–	–	–	–	–	–	–	–	–	5 (Herbicidal ratio of 90% or more (almost completely withered))	–	–	–	–	4 (Herbicidal ratio of 70% or higher and lower than 90%)	–	5 (Herbicidal ratio of 90% or more (almost completely withered))	F: Digitaria ciliaris, herbicidal effect grade (Digitaria ciliaris): 5 (Herbicidal ratio of 90% or more (almost completely withered)); M: Abutilon theophrasti, herbicidal effect grade (Abutilon theophrasti): 1 (Herbicidal ratio of 5% or higher and lower than 20%); Q: Galium spurium, herbicidal effect grade (Galium spurium [2]): 0 (Herbicidal ratio of 5% or lower (almost no effect)); O: Chenopodium album, herbicidal effect grade (Chenopodium album): 5 (Herbicidal ratio of 90% or more (almost completely withered)); N: Amaranthus retroflexus, herbicidal effect grade (Amaranthus retroflexus): 5 (Herbicidal ratio of 90% or more (almost completely withered)); R: Veronica persica, herbicidal effect grade (Veronica persica): 4 (Herbicidal ratio of 70% or higher and lower than 90%); I: Avena fatua, herbicidal effect grade (Avena fatua [3]): 1 (Herbicidal ratio of 5% or higher and lower than 20%); P: Stellaria media, herbicidal effect grade (Stellaria media): 4 (Herbicidal ratio of 70% or higher and lower than 90%); d: soybean, effect on crop grade (soybean): 1 (Herbicidal ratio of 5% or higher and lower than 20%); Q: Galium spurium, herbicidal effect grade (Galium spurium [4]): 4 (Herbicidal ratio of 70% or higher and lower than 90%); L: Apera spica-venti, herbicidal effect grade (Apera spica-venti [5]): 5 (Herbicidal ratio of 90% or more (almost completely withered)); G: Setaria viridis, herbicidal effect grade (Setaria viridis): 5 (Herbicidal ratio of 90% or more (almost completely withered)); g: rapeseed, effect on crop grade (rapeseed): 5 (Herbicidal ratio of 90% or more (almost completely withered)); I: Avena fatua, herbicidal effect grade (Avena fatua [6]): 4 (Herbicidal ratio of 70% or higher and lower than 90%); H: Echinochloa crus-galli var. crus-galli, herbicidal effect grade [7]: 5 (Herbicidal ratio of 90% or more (almost completely withered)); f: beet, effect on crop grade (beet): 3 (Herbicidal ratio of 40% or higher and lower than 70%)
CON=C(C)CC1CC(OC(=O)C2CC2)=C(c2c(C)cc(C)cc2C)C1=O (stereo not shown) [1-015]	–	–	–	–	–	–	–	–	–	–	–	–	5 (Herbicidal ratio of 90% or more (almost completely withered))	–	–	–	–	5 (Herbicidal ratio of 90% or more (almost completely withered))	–	5 (Herbicidal ratio of 90% or more (almost completely withered))	F: Digitaria ciliaris, herbicidal effect grade (Digitaria ciliaris): 5 (Herbicidal ratio of 90% or more (almost completely withered)); M: Abutilon theophrasti, herbicidal effect grade (Abutilon theophrasti): 4 (Herbicidal ratio of 70% or higher and lower than 90%); Q (Galium spurium) herbicidal effect grade (Galium spurium [2]): 3 (Herbicidal ratio of 40% or higher and lower than 70%); O: Chenopodium album, herbicidal effect grade (Chenopodium album): 3 (Herbicidal ratio of 40% or higher and lower than 70%); N (Amaranthus retroflexus) herbicidal effect grade (Amaranthus retroflexus): 5 (Herbicidal ratio of 90% or more (almost completely withered)); R: Veronica persica, herbicidal effect grade (Veronica persica): 4 (Herbicidal ratio of 70% or higher and lower than 90%); I (Avena fatua) herbicidal effect grade (Avena fatua [3]): 5 (Herbicidal ratio of 90% or more (almost completely withered)); P: Stellaria media, herbicidal effect grade (Stellaria media): 4 (Herbicidal ratio of 70% or higher and lower than 90%); d (soybean) effect on crop grade (soybean): 3 (Herbicidal ratio of 40% or higher and lower than 70%); Q: Galium spurium, herbicidal effect grade (Galium spurium [4]): 4 (Herbicidal ratio of 70% or higher and lower than 90%); L (Apera spica-venti) herbicidal effect grade (Apera spica-venti [5]): 5 (Herbicidal ratio of 90% or more (almost completely withered)); G (Setaria viridis) herbicidal effect grade (Setaria viridis): 3 (Herbicidal ratio of 40% or higher and lower than 70%); g: rapeseed, effect on crop grade (rapeseed): 4 (Herbicidal ratio of 70% or higher and lower than 90%); I: Avena fatua, herbicidal effect grade (Avena fatua [6]): 5 (Herbicidal ratio of 90% or more (almost completely withered)); H: Echinochloa crus-galli var. crus-galli, herbicidal effect grade [7]: 5 (Herbicidal ratio of 90% or more (almost completely withered)); f: beet, effect on crop grade (beet): 3 (Herbicidal ratio of 40% or higher and lower than 70%)
